Laboratory results taken from patent US10864154B2, “Skin care compositions and their applications” (SAMI LABS LIMITED, priority 2019, dated 2020).

Columns and labels:
[1] = test system: B16F1 mouse melanoma cells; assay: Melanogenesis inhibition in α-MSH stimulated B16F1 cells (melanin at 405 nm); type: cell-based; details: EAA alone, 72 hours
Method: The intracellular melanin in B16F1 mouse melanoma cells is extracted by 1N NaOH. The brown colored melanin thus extracted is estimated at 405 nm. The synthesis of melanin is inhibited in the presence of inhibitor which results in reduced absorbance at 405 nm.
MSH Stock was prepared at 1 mg/ml in distilled water. MSH at a final concentration of 1 nM was used to stimulate melanogenesis
B16F1 mouse melanoma cells were cultured for 24 hours in a 96 well microtiter plate at a seeding density of 5000 cells per well. Cells are treated with varying non cytotoxic concentrations of the sample over a period of 72 hours along with melanin stimulating hormone (∝-MSH) to induce the synthesis of melanin pigment. Untreated cells and cells without ∝-MSH addition were used as positive and negative control. The melanin produced by the cells was extracted by 1N NaOH and the absorbance was read at 405 nm in a Microplate reader. The inhibitory effect of the sample is calculated based on the degree of inhibition of melanin formation.
The results are expressed as IC50 values using Graph pad prism software. The percentage of inhibition of melanin is calculated as follows,
[formula] Where C-absorbance due to melanin in untreated cells
T-absorbance due to melanin in sample treated cells

[2] = target: T1, Mushroom Tyrosinase (Agaricus bisporus, UniProt C7FF04); assay: Tyrosinase inhibition assay (L-Tyrosine substrate, absorbance at 492 nm); type: biochemical; details: EAA alone
T1 construct: purchased Sigma
T1 sequence (C7FF04 1-392 limits assumed): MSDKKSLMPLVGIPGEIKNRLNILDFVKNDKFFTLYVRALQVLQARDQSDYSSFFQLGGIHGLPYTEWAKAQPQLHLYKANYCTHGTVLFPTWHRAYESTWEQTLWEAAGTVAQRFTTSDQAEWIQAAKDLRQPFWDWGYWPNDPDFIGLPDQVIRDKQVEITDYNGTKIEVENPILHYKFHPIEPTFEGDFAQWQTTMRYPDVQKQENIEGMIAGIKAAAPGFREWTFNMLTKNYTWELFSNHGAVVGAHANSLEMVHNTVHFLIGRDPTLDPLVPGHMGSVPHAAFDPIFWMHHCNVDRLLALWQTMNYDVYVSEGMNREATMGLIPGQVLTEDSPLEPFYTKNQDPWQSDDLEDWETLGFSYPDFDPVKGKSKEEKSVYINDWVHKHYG
Method: Tyrosinase acts on L-Tyrosine forming a pink colored complex, the intensity of which is measured at 492 nm. The Tyrosinase activity in the presence and absence of inhibitor is assayed spectrophotometrically at 492 nm using a Microplate reader.
Mushroom Tyrosinase enzyme is prepared by dissolving entire content in […], pH 6.5 pre-chilled enzyme buffer to get […]. Gentle shaking for five minutes aids in dissolution of enzyme. Aliquot the stock into vials of 100 μl each and keep at −80° until use for at least 2 months. Multiple freeze-thaw cycles of the enzyme must be avoided.
A stock of 2.50 mM L-Tyrosine Disodium salt (Sigma) is prepared in 1.5 mM phosphate buffer (pH 6.5) by dissolving 2.845 mg/5 ml.
Samples were dissolved in DMSO and further dilutions were carried out in buffer
The assay was performed in a 96 well clear microtitre plate. Different concentrations of the composition comprising ethyl-ascorbic acid and tetrahydrocurcuminoids were pre incubated with 10 μl of […] stock Solution of Mushroom Tyrosinase (f.c. 6 U/well) at 37° C. for 10 minutes. The reaction is initiated by adding 2.5 mM L-Tyrosine disodium and the absorbance is read immediately every minute until 15 minutes using the microplate reader at 492 nm. A test blank well was prepared for each sample without the enzyme. Enzyme reaction with vehicle alone served as a control for enzyme activity. Kojic acid was used as a positive control.
The results are expressed as IC50 values using Graphpad prism software. The percentage of inhibition of melanin is calculated as follows,
Where C-absorbance in control and T-absorbance in test sample

- % Inhibition of tyrosinase activity ([2]; 62.5 μg/ml): Nil
- % Inhibition of tyrosinase activity ([2]; 125 μg/ml): Nil
- inhibition at 250 µg/mL ([2]; 250 μg/ml): 11.6%
- inhibition at 500 µg/mL ([2]; 500 μg/ml): 28.3%
Structure (SMILES): CCOC1=C(O)C(=O)O[C@@H]1[C@@H](O)CO [Ethyl-ascorbic acid (EAA), 3-O-ethyl-ascorbic acid]
- % Inhibition of melanogenesis ([1]; 0.625 μg/ml): Nil
- % Inhibition of melanogenesis ([1]; 0.625 μg/ml, listed as ethyl-ascorbic acid): did not show any melanogenesis inhibition
- % Inhibition of melanogenesis ([1]; 1.25 μg/ml): Nil
